Source: ChEMBL document CHEMBL1158200, “Coriadienin, the first annonaceous acetogenin with two double bonds isolated from Annona coriaceae” (J Nat Prod, 1996)
Values after ≈ are worked out from the molar mass of the structure shown.

Experiments:
KB = assay: Cytotoxicity against human KB cells; type: functional
[1] = Cytotoxicity against african green monkey Vero cells; type: cell-based; details: chlorocebus sabaeus, read-out: ED50 (the source's name)

SMILES | ED50 (KB) | CC50 [1] [µg/mL] | EC50 (KB; Homo sapiens, KB, read-out: ED50 (the source's name)) [µg/mL]
CCCCCCCCCCCC[C@H](O)[C@@H](O)CC/C=C\CC[C@@H](O)[C@H]1CCC(CCCCCC(O)CC2=CC(C)OC2=O)O1 (some centres not stated) [CORIACIN] | <3 ×10⁻⁷ ug/ml | 0.0057 (≈ 0.00915 µM) | 
CCCCCCCCCCCC[C@H](O)[C@@H](O)CC/C=C\CC[C@@H](O)[C@H]1CCC(CCCCCCCC2=CC(C)OC2=O)O1 (some centres not stated) | 6 ×10⁻⁴ ug/ml | 0.05 (≈ 0.0824 µM) | 
CC(=O)O[C@H]1C(=O)[C@@]2(C)[C@H]([C@H](OC(=O)c3ccccc3)[C@]3(O)C[C@H](OC(=O)[C@H](O)[C@@H](NC(=O)c4ccccc4)c4ccccc4)C(C)=C1C3(C)C)[C@]1(OC(C)=O)CO[C@@H]1C[C@@H]2O [PACLITAXEL] |  | > 0.3 | 0.02 (≈ 0.0234 µM)
CCCCCCCCCCCC[C@H](O)[C@@H](O)CCC1OC1CCC1OC1CCC(O)CCCCCC(O)CC1=CC(C)OC1=O (some centres not stated) [BISEPOXYCORIADIENIN] | 2.5 ×10⁻⁷ ug/ml | 0.013 (≈ 0.0203 µM) | 
CCCCCCCCCCCC[C@H](O)[C@@H](O)CC/C=C\CC/C=C\CCC(O)CCCCCC(O)CC1=CC(C)OC1=O (some centres not stated) [CORIADIENIN] | 1.6 ×10⁻⁶ ug/ml | 0.15 (≈ 0.247 µM) | 
CCCCCCCCCCCCCCC(O)C(O)CC[C@H](O)[C@H]1CC[C@H](CCCCC[C@@H](O)CC2=C[C@H](C)OC2=O)O1 (some centres not stated) [GIGANTETRONENIN] | <3 ×10⁻⁷ ug/ml | 0.0057 (≈ 0.00955 µM) | 
